The text below walks through data of PMC10734298 (ACS Omega, 2023).

The test system of data set [1] is influenza virus (all tested viruses). Briefly: microbe, parasite or virus in culture. In kind it is cell-based, influenza A virus. To be noted: unidentified influenza virus, MDCK, read-out: EC50 value.
The nature of data set [2]: Toxicity in fertilized chicken eggs. To be noted: in vivo, other: inoculated into the allantoic cavity.
For data set [3], the system named is A/Vladivostok/2/09 (H1N1). As to the kind of experiment: microbe, parasite or virus in culture. In kind it is cell-based, influenza A virus. To be noted: for EC50: Influenza A virus, H1N1, MDCK.
Data set [4] relates to A/Tern/South Africa/1/61 (H5N3). Also on record: species or system influenza A virus.
Data set [5] concerns A/chicken/FPV/Rostock/1934 (H7N1). On the set-up: species or system influenza A virus.
The test system of data set [6] is A/Vladivostok/2/09 (H1N1). As to the kind of experiment: animal or person. To be noted: Influenza A virus. In kind it is in vivo.
In data set [7] the test system is A/Almaty/8/98(H3N2). Briefly: microbe, parasite or virus in culture. In kind it is cell-based, influenza A virus. Conditions: for EC50: Influenza A virus, H3N2, MDCK.
Data set [8] concerns A/Vladivostok/2/09 (H1N1). Also on record: species or system influenza A virus.
The test system of data set [9] is A/chicken/FPV/Rostock/1934(H7N1). Also on record: species or system influenza A virus. Conditions: in vivo.
The subject of data set [10] is A/chicken/FPV/Rostock/1934 (H7N1). In kind it is biochemical, influenza A virus. Conditions: read-out: Hemagglutination Inhibition Concentration 50 (HIC50).
For data set [11], the system named is A/chicken/FPV/Rostock/1934(H7N1). In kind it is cell-based, influenza A virus.
The subject of data set [12] is A/Tern/South Africa/1/61(H5N3). Briefly: microbe, parasite or virus in culture. In kind it is cell-based, influenza A virus. Conditions: for EC50: Influenza A virus, H5N3, MDCK.
Data set [13] relates to A/Almaty/8/98(H3N2). Also on record: species or system influenza A virus.
Data set [14] can be described thus: Toxicity in MDCK cells. To be noted: dog.
The subject of data set [15] is A/Tern/South Africa/1/61 (H5N3). In kind it is biochemical, influenza A virus. Conditions: read-out: Hemagglutination Inhibition Concentration 50 (HIC50).
For data set [16], the system named is A/Vladivostok/2/09 (H1N1). In kind it is biochemical, influenza A virus. To be noted: read-out: Hemagglutination Inhibition Concentration 50 (HIC50).
Data set [17] deals with NA of A/chicken/FPV/Rostock/1934 (H7N1) (Influenza A virus, UniProt Q64968). In kind it is biochemical. Conditions: read-out: Neuraminidase Inhibition Concentration 50 (NIC50).
NA of A/chicken/FPV/Rostock/1934 (H7N1), sequence (Q64968 whole entry, looked up): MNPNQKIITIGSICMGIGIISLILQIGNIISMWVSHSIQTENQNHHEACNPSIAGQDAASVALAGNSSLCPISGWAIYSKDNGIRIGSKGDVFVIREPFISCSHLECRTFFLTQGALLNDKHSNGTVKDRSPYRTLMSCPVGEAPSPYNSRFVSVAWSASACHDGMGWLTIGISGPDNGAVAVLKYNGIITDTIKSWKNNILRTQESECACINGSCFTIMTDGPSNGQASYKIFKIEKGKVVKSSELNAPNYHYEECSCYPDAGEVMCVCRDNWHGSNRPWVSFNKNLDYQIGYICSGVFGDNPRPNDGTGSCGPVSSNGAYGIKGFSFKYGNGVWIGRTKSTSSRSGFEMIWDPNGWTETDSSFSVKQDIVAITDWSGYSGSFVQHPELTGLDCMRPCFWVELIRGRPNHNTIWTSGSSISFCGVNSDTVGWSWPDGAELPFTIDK
The test system of data set [18] is A/Almaty/8/98(H3N2). In kind it is biochemical, influenza A virus. Conditions: read-out: Hemagglutination Inhibition Concentration 50 (HIC50).
Data set [19] concerns A/Tern/South Africa/1/61(H5N3). As to the kind of experiment: animal or person. In kind it is in vivo, influenza A virus. To be noted: for EC50: Influenza A virus, H5N3.
Data set [20] deals with NA of A/Tern/South Africa/1/61 (H5N3) (Influenza A virus, UniProt Q6XV52). Briefly: biochemical.
NA of A/Tern/South Africa/1/61 (H5N3), sequence (Q6XV52 whole entry, looked up): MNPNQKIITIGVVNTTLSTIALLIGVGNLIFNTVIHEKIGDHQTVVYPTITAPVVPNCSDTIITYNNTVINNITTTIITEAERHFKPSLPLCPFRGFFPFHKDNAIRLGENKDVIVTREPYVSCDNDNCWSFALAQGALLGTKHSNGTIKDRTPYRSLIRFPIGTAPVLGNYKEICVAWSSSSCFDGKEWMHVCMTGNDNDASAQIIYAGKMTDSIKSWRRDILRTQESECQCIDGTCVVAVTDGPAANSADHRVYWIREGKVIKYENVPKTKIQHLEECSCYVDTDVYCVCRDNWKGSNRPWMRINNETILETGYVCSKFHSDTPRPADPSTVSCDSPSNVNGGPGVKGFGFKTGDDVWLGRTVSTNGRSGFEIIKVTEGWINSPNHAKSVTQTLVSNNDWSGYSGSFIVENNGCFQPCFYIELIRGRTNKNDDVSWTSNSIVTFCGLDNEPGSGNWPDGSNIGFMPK
In data set [21] the test system is A/Almaty/8/98(H3N2). Briefly: animal or person. In kind it is in vivo, influenza A virus. Conditions: for EC50: Influenza A virus, H3N2.
The test system of data set [22] is NA protein of panel of viruses. As to the kind of experiment: NA inhibition assay, whole virus panel. In kind it is biochemical, influenza A virus. Conditions: read-out: concentrations inhibiting the NA activity; range over panel viruses.

One may read the EC50 as the midpoint of the concentration-response curve. The term CC50 denotes the concentration that lowers cell viability or growth by half. Lower therefore signals greater toxicity to the cells.

Read-outs that look alike come from different tables or passages of the source.

For the compound `COc1cc(-c2oc3cc(O)cc(O)c3c(=O)c2O)ccc1O` [isorhamnetin], the EC50 is 28 to 56 µM in [1]; 56 ± 0.45 µM in data set [3]; 56 ± 0.45 µM in data set [6]; 28 ± 0.34 µM in [7]; 35.4 ± 0.18 µM in [12]; 35.4 ± 0.18 µM in data set [19]. In data set [21], this compound came in with an EC50 of 28 ± 0.34 µM. The compound further had a CC50 at 5 days in data set [2] greater than 420 µM. In addition, the SI is greater than 5.0 in [3]; greater than 10.0 in [7]; greater than 12.1 in [9]; greater than 8.1 in data set [11]; greater than 7.9 in data set [12]; greater than 12.0 in [19] (in vivo). In data set [21] (in vivo), the SI was greater than 15. Also, the “Virus Titer Reduction Factor (VTRF)” value in data set [4] was determined as 1.9 ± 0.02; in [5], 1.5 ± 0.02; in data set [8] it was 1.5 ± 0.02; in data set [13] it was 1.5 ± 0.02. Also, the IC50 in data set [10] was 48.2 ± 1.7 µM; in [15], 39.3 ± 0.7 µM; in data set [16] it was 156 ± 2 µM; in data set [17], 68.2 ± 1.2 µM; in data set [18], 50.5 ± 0.45 µM; in data set [20], 370 ± 7.5 µM. The compound further yielded a CC50 at 48 h in data set [14] greater than 280 µM.
On to `CCOC(=O)C1=C[C@@H](OC(CC)CC)[C@H](NC(C)=O)[C@@H](N)C1` [oseltamivir], for which the EC50 in data set [1] was 1.3 to 9.1 µM; in data set [3], 9.091 ± 0.04 µM; in data set [7], 1.33 ± 0.028 µM; in data set [12], 1.65 ± 0.027 µM; in data set [19], 1.65 ± 0.027 µM; in data set [21], 1.33 ± 0.028 µM. Further, the CC50 at 5 days in data set [2] is greater than 150 µM. Further, the “Virus Titer Reduction Factor (VTRF)” value came out at 1.0 ± 0.01 in data set [4], 1.0 ± 0.02 in data set [5], 1.0 ± 0.02 in data set [8] and 1.0 ± 0.02 in data set [13]. Besides, the IC50 in data set [10] was 135 ± 6.6 µM; in [15], 155 ± 2 µM; in data set [16] it was 155 ± 5.1 µM; in data set [17], 6.1 ± 0.2 µM; in data set [22] it was 4 to 20.3 µM; in data set [18], 145 ± 6.6 µM. In data set [20], this compound had an IC50 of 20.3 ± 0.5 µM. This compound also returned a cytotoxic concentration (CC50) at 48 h in data set [14] greater than 100 µM.
